Test: mn = molality of the nth substance listed, in mol/kg
Settings: 101 kPa, Liquid; for speed of sound: Sing-around technique in a fixed-path interferometer; for mass density: Vibrating tube method

C[C@H](N)C(=O)O [(S)-2-aminopropanoic acid] + O
Settings | mass density, 288.15 K [kg/m3] | mass density, 298.15 K [kg/m3] | mass density, 308.15 K [kg/m3] | mass density, 318.15 K [kg/m3] | speed of sound, 288.15 K [m/s] | speed of sound, 298.15 K [m/s] | speed of sound, 308.15 K [m/s] | speed of sound, 318.15 K [m/s]
m1 = 0.00939 | 999.393 | 997.32 | 994.294 | 990.395 | 1467.6 | 1497.9 | 1520.8 | 1537
m1 = 0.04689 | 1000.52 | 998.405 | 995.339 | 991.404 | 1469.9 | 1499.8 | 1522.7 | 1539.2
m1 = 0.09896 | 1002.07 | 999.9 | 996.777 | 992.791 | 1472.8 | 1502.8 | 1525.5 | 1542
m1 = 0.2003 | 1005.04 | 1002.78 | 999.545 | 995.459 | 1480.3 | 1509.6 | 1531.8 | 1547.9
m1 = 0.2979 | 1007.86 | 1005.5 | 1002.16 | 997.981 | 1487.3 | 1515.9 | 1537.9 | 1553.2
m1 = 0.3997 | 1010.74 | 1008.28 | 1004.85 | 1000.56 | 1494.3 | 1522.7 | 1544 | 1558.7
m1 = 0.4941 | 1013.38 | 1010.81 | 1007.28 | 1002.91 | 1500.3 | 1528 | 1549 | 1564.1
m1 = 0.6099 | 1016.55 | 1013.87 | 1010.22 | 1005.75 | 1509.5 | 1536.7 | 1556.8 | 1571.4
m1 = 0.6973 | 1018.88 | 1016.12 | 1012.38 | 1007.84 | 1513.3 | 1540.4 | 1560.7 | 1574.7
m1 = 0.7978 | 1021.55 | 1018.68 | 1014.85 | 1010.19 | 1520 | 1546.2 | 1566 | 1580.9

Reference: the NIST ThermoML archive (doi:10.1016/j.jct.2013.08.010)
